By pIC50 is commonly meant the negative decadic logarithm of the IC50, by convention in mol/L. A low value points to a high IC50.

For 33 compounds, IC50 results are on record in ChEMBL document CHEMBL1764969, “Design, synthesis and structure-activity relationship (SAR) studies of 2,4-disubstituted pyrimidine derivatives: dual activity as cholinesterase and Aβ-aggregation inhibitors” (Bioorg Med Chem, 2011).

One experiment concerns the target Butyrylcholinesterase (Equus caballus, UniProt Q9N1N9).
Another experiment has as its target Acetylcholinesterase (Homo sapiens, UniProt P22303).

pIC50: −log10 of the molar value. A value given as a limit tells only on which side of the number the result lay.

Butyrylcholinesterase, sequence (Q9N1N9 whole entry): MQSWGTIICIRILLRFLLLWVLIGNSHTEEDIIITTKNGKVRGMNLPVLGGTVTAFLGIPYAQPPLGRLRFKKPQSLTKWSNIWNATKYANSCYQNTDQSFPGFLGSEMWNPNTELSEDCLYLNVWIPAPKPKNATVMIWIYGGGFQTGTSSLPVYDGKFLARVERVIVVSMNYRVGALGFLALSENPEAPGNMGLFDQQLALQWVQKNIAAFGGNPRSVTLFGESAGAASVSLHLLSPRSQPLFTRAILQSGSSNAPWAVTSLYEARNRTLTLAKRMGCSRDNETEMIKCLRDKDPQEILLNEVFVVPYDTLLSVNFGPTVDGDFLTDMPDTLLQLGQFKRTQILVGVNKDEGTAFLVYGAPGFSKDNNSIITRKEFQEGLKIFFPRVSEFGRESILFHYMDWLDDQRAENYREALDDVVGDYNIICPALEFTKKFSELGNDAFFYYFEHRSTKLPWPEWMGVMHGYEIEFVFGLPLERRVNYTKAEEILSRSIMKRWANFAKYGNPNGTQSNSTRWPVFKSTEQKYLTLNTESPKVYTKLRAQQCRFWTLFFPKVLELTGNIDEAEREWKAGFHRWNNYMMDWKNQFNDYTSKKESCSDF
Acetylcholinesterase, sequence (P22303 whole entry): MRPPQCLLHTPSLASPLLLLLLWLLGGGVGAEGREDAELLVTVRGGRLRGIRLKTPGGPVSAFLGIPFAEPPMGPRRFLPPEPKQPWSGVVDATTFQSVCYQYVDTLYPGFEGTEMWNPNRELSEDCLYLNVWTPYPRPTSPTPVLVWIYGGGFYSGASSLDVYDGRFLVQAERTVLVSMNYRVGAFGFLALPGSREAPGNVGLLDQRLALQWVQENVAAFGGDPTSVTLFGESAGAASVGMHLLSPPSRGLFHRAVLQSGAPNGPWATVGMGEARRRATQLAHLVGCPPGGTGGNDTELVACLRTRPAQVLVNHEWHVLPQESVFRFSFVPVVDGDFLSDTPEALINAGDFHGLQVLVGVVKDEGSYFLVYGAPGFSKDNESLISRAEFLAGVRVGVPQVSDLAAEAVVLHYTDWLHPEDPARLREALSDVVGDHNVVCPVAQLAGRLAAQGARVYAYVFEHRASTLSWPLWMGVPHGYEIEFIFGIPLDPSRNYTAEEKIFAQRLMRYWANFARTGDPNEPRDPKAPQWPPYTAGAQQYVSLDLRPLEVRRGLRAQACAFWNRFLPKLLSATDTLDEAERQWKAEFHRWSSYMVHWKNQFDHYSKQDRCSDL
Description for Acetylcholinesterase: Inhibition of human AChE incubated with compounf for 5 mins before addition of substrate acetylthiocholine iodide by Ellman's method
Description for Butyrylcholinesterase: Inhibition of equine BChE incubated with compounf for 5 mins before addition of substrate S-butyrylthiocholine iodide by Ellman's method

Turning to `CC(C)N1CCN(c2nccc(NCc3ccccc3)n2)CC1`, the pIC50 was 5.47 at Butyrylcholinesterase and 4.60 against Acetylcholinesterase.

For the compound `Fc1ccc(CN2CCN(c3nccc(NCc4ccccc4)n3)CC2)cc1`, the pIC50 at Butyrylcholinesterase is 5.14; on Acetylcholinesterase, 4.67.

On to `CC(=O)N1CCN(c2nccc(NCc3ccccc3)n2)CC1`, for which the pIC50 is less than 4.00 against Butyrylcholinesterase and 4.78 at Acetylcholinesterase.

For the compound `c1ccc(CNc2ccnc(N3CCNCC3)n2)cc1`, the pIC50 against Butyrylcholinesterase is less than 4.00; against Acetylcholinesterase, 4.81.

For the compound `c1ccc(CCNc2ccnc(N3CCSCC3)n2)cc1`, the figures for the negative logarithm of the IC50 (pIC50) at Butyrylcholinesterase and at Acetylcholinesterase were less than 4.00 and 4.58, respectively.

As for `OCCN1CCN(c2nccc(NCc3ccccc3)n2)CC1`, the pIC50 on Butyrylcholinesterase was less than 4.00; against Acetylcholinesterase, 4.58.

On to `CN1CCN(c2nccc(NCc3ccccc3)n2)CC1`, for which the pIC50 at Butyrylcholinesterase was less than 4.00; against Acetylcholinesterase, 4.60.

Turning to `[O-][S+]1CCN(c2nccc(NCc3ccccc3)n2)CC1`, the pIC50 was less than 4.00 at Butyrylcholinesterase and 4.90 against Acetylcholinesterase.

In the case of `CC1CCN(c2nccc(NCCc3ccccc3)n2)CC1`, the results for the pIC50 at Butyrylcholinesterase and against Acetylcholinesterase were 4.75 and 5.06, respectively.

With `CCCN1CCN(c2nccc(NCc3ccccc3)n2)CC1`, the figures for the pIC50 against Butyrylcholinesterase and at Acetylcholinesterase were 4.22 and 4.82, respectively.

On to `CN1CCN(c2nccc(NCc3cccc4ccccc34)n2)CC1`, for which the pIC50 is 5.59 at Butyrylcholinesterase and 4.76 at Acetylcholinesterase.

As to `c1ccc2c(CNc3ccnc(N4CCSCC4)n3)cccc2c1`, at Acetylcholinesterase, the pIC50 was 4.89.

Turning to `c1ccc2c(CNc3ccnc(N4CCCC4)n3)cccc2c1`, the results for the pIC50 against Butyrylcholinesterase and against Acetylcholinesterase were 5.05 and 5.26, respectively.

Regarding `c1ccc(CNc2ccnc(N3CCCC3)n2)cc1`, the values for the pIC50 on Butyrylcholinesterase and at Acetylcholinesterase were 4.58 and 5.06, respectively.

On Acetylcholinesterase, `c1ccc(CCNc2ccnc(N3CCCC3)n2)cc1` had a pIC50 of 5.01.

In the case of `O=S1(=O)CCN(c2nccc(NCc3ccccc3)n2)CC1`, the pIC50 was less than 4.00 against Butyrylcholinesterase and 4.62 against Acetylcholinesterase.

For `c1ccc2c(CNc3ccnc(N4CCOCC4)n3)cccc2c1`, the pIC50 at Butyrylcholinesterase is 4.55; against Acetylcholinesterase, 4.83.

As for `CN1CCN(c2nccc(NCCc3ccccc3)n2)CC1`, the pIC50 was less than 4.00 against Butyrylcholinesterase and 4.69 against Acetylcholinesterase.

Turning to `CC1CCN(c2nccc(NCc3cccc4ccccc34)n2)CC1`, the pIC50 against Butyrylcholinesterase is 5.66; on Acetylcholinesterase, 4.59.

Turning to `c1ccc(CNc2ccnc(NC3CCN(Cc4ccccc4)CC3)n2)cc1`, the pIC50 on Butyrylcholinesterase was 5.09; against Acetylcholinesterase, 4.91.

As to `CC(=O)N1CCN(c2nccc(NCCc3ccccc3)n2)CC1`, the pIC50 was less than 4.00 against Butyrylcholinesterase and 4.70 against Acetylcholinesterase.

In the case of `CC(C)C1CCN(c2nccc(NCc3ccccc3)n2)CC1`, the pIC50 on Butyrylcholinesterase is 5.19; on Acetylcholinesterase, 4.85.

`c1ccc2c(NCCCCCCCNc3c4c(nc5ccccc35)CCCC4)c3c(nc2c1)CCCC3` had a pIC50 at Butyrylcholinesterase of 8.00.

Take `c1ccc(CNc2ccnc(N3CCN(C4CCCCC4)CC3)n2)cc1`: the pIC50 was 5.12 against Butyrylcholinesterase and 4.64 at Acetylcholinesterase.

Turning to `Brc1ccc(CN2CCN(c3nccc(NCc4ccccc4)n3)CC2)cc1`, the pIC50 on Butyrylcholinesterase is 4.84; at Acetylcholinesterase, 4.59.

As for `Clc1ccc(CN2CCN(c3nccc(NCc4ccccc4)n3)CC2)cc1`, the values for the pIC50 on Butyrylcholinesterase and against Acetylcholinesterase were 4.97 and 4.69, respectively.

Turning to `COCCN1CCN(c2nccc(NCc3ccccc3)n2)CC1`, the pIC50 against Butyrylcholinesterase is less than 4.00; against Acetylcholinesterase it was 4.57.

With `c1ccc(CNc2ccnc(N3CCSCC3)n2)cc1`, the figures for the pIC50 against Butyrylcholinesterase and against Acetylcholinesterase were 5.21 and 4.63, respectively.

Turning to `CC1CCN(c2nccc(NCc3ccccc3)n2)CC1`, the pIC50 was 5.47 against Butyrylcholinesterase and 4.74 against Acetylcholinesterase.

As to `FC(F)(F)c1ccc(CN2CCN(c3nccc(NCc4ccccc4)n3)CC2)cc1`, the pIC50 was less than 4.00 on Butyrylcholinesterase and 4.54 against Acetylcholinesterase.

As to `c1ccc(CCNc2ccnc(N3CCOCC3)n2)cc1`, the figures for the pIC50 on Butyrylcholinesterase and on Acetylcholinesterase were less than 4.00 and 4.71, respectively.

Turning to `CC(C)(C)OC(=O)N1CCN(c2nccc(NCc3ccccc3)n2)CC1`, the pIC50 was less than 4.00 on Butyrylcholinesterase and 4.73 at Acetylcholinesterase.

`c1ccc(CNc2ccnc(N3CCOCC3)n2)cc1` gave a negative logarithm of the IC50 (pIC50) against Acetylcholinesterase of 4.85.
